Measured values taken from patent publication US20200345746A1, “Oxazine Derivative for Use in the Prevention of Alzheimer's Disease in at Risk Patents” (Novartis AG, priority 2016, published 2020).
Several values for one entry are separate records, joined by “and”; a condition that tells them apart may be missing. Equal entries are not always repeated.

Assays:
[1] = system: Aβ40; assay: Aβ40 in C57BL/6 mouse brain after chronic dosing (MSD assay); type: in vivo; settings: for Average Aβ40 brain: mean ± SD, n = 4
Experimental: (§1) Frozen mouse forebrains were weighed and homogenized in 9 volumes (w/v) of ice-cold TBS-Complete (20 mM Tris-HCl pH 7.4, 137 mM NaCl, 1× Complete [Protease Inhibitor Cocktail Tablets: 1 836 145, Roche Diagnostics GmbH, Penzberg, Germany]) by sonication (90% duty cycle, output control 5, 40-55 pulses, [Sonifier 450, Branson]). After homogenization several 50 μl aliquots were prepared for analysis and were stored at −80° C.
Human Aβ peptide (1-40) trifluoroacetate salt (H 1194.1000, Bachem, Bubendorf, Switzerland) was used as calibration curve for Aβ1-40. It was solubilized in water-free DMSO (41647, Fluka) at a concentration of 1 mg/ml for approximately 30 min at room temperature (RT) and then visually checked for complete solubilization.
(§2) Endogenous Aβ40 in mice was determined with the Meso Scale Discovery (MSD) 96-well MULTI-ARRAY human/rodent (4G8) Aβ40 Ultrasensitive Assay (#K110FTE-3, Meso Scale Discovery, Gaithersburg, USA). The assay was performed according to the manufacturer's instructions except for the calibration curve and the sample preparations. TritonX-100 (TX-100) soluble Aβ40 was extracted from forebrain with 1% TX-100 using a 50 μl aliquot of each 1:10 forebrain homogenate, mixed with 50 μl 2% TX-100 in TBS complete (20 mM Tris-HCl pH 7.4, 137 mM NaCl, 1× Complete [Protease Inhibitor Cocktail Tablets: 1 836 145, Roche Diagnostics GmbH, Penzberg Germany]) to reach a final concentration of 1% TX-100 and a 1:20 forebrain dilution. The samples were incubated for 15 min on ice and vortexed every 5 min. The samples were ultra-centrifuged (100000×g, 4° C., 15 min) and 50 μl of the clear supernatants were transferred to fresh tubes. For the Aβ40 assay the supernatants were further diluted 1:5 in 3% Blocker A solution (from kit) to a final forebrain dilution of 1:100 and applied to the plate.
The calibration curve was prepared in a corresponding dilution of 1% Blocker A solution spiked with synthetic Aβ1-40 peptide (1.56-100 pg/ml) except for non-transgenic mouse brain samples: In this case, the calibration curve was prepared in a correspondingly diluted APP knockout mouse forebrain spiked with synthetic Aβ1-40 peptide (1.56-100 pg/ml). For all samples and standards 25 μl were applied per well. For each determination duplicate wells were performed. The mean values from the duplicate wells were used for calculations.
At the last day of the study, groups of n=4 mice were sacrificed 4 hours and 24 hours after having received the last dose. Forebrain was separated, and analyzed for β-amyloid peptide 1-40. Concentrations of Aβ40 for the vehicle and treatment groups are summarized in Table 6 and visualised in FIG. 2. The percent of reduction versus the corresponding vehicle treated group was calculated.

[2] = system: Aβ40; assay: Acute PK/PD in APOE4-TR mice: Aβ40 in brain; type: in vivo, mouse; settings: for Average Aβ40 brain ± SD: n = 6; for Aβ40 reduction vs vehicle, range over the doses: APOE4-TR mice, 3, 10 and 30 μmol/kg
Experimental: Compound 1 was formulated as a suspension. Vehicle or compound was given by oral administration in a volume of 10 ml/kg once. Vehicle: 0.1% Tween80 in 0.5% Methylcellulose in water.
as §1, §2
The calibration curve was prepared in a corresponding dilution of 1% Blocker A solution spiked with synthetic Aβ1-40 peptide (1.56-100 pg/ml) except for non-transgenic mouse brain samples: In this case, the calibration curve was prepared in a correspondingly diluted APP knockout mouse forebrain spiked with synthetic Aβ1-40 peptide (1.56-100 pg/ml). For all samples and standards 25 μl were applied per well. For each determination duplicate wells were done. The mean values from the duplicate wells were used for calculations.

[3] = system: Aβ40; assay: Aβ40 in APP23 mouse CSF; type: in vivo; settings: APP23 mice; for CSF Aβ40 Mean ± SEM: 6 months
Experimental: Mouse CSF samples (3 μl) was diluted with 57 μL 1% Blocker A (MSD) and 25 μl were applied to the assay plate.
CSF was collected from all mice at necropsy. Samples from the baseline group were stored for approximately 6 months, and analyzed together with the rest of the samples at the end of the study. […] The reason for the high baseline values is currently not known. It is hypothesized that this is an effect of long term storage, when dissociation of oligomeric forms of Aβ may lead to higher monomeric concentrations. CSF Aβ, more than Triton TX-100 solubilized Aβ from brain extracts, represents the steady-state concentration of soluble amyloid-β that directly responds to changes in Aβ generation.

[4] = APOE4-TR mice, 30 μmol/kg acute

SMILES: C[C@@]1(c2nc(NC(=O)c3ncc(C(F)(F)F)cc3Cl)ccc2F)CO[C@@](C)(C(F)(F)F)C(N)=N1 [Compound 1, N-(6-((3R,6R)-5-amino-3,6-dimethyl-6-(trifluoromethyl)-3,6-dihydro-2H-1,4-oxazin-3-yl)-5-fluoropyridin-2-yl)-3-chloro-5-(trifluoromethyl)picolinamide]
- Average Aβ40 brain ([1]; C57BL/6, 8 μmol/kg q.d. 8 weeks, 4 h after last dose): 432.8 ± 140.5 pg/g
- Average Aβ40 brain ([1]; C57BL/6, 8 μmol/kg q.d. 8 weeks, 24 h after last dose): 1098.6 ± 148.7 pg/g
- % reduction vs vehicle (brain Aβ40) ([1]; C57BL/6, 8 μmol/kg, 4 h after last dose): 67.1%
- % reduction vs vehicle (brain Aβ40) ([1]; C57BL/6, 8 μmol/kg, 24 h after last dose): 25% and 25.3%
- Mini AU EC (brain Aβ40) ([1]; C57BL/6, 8 μmol/kg, after last dose): 46.2%
- Average Aβ40 brain ([1]; C57BL/6, 50 μmol/kg q.d. 8 weeks, 4 h after last dose): 93.4 ± 83.7 pg/g
- Average Aβ40 brain ([1]; C57BL/6, 50 μmol/kg q.d. 8 weeks, 24 h after last dose): 233.8 ± 36.5 pg/g
- % reduction vs vehicle (brain Aβ40) ([1]; C57BL/6, 50 μmol/kg, 4 h after last dose): 92.9%
- % reduction vs vehicle (brain Aβ40) ([1]; C57BL/6, 50 μmol/kg, 24 h after last dose): 84.1%
- Mini AU EC (brain Aβ40) ([1]; C57BL/6, 50 μmol/kg, after last dose): 88.5%
- Aβ40 reduction over the whole 24 hour time course ([1]; C57BL/6, 50 μmoles/kg, after last dose): 80-90%
- Mini AUEC (brain Aβ40) ([2]; APOE4-TR mice, 3 μmol/kg acute): 32%
- Average Aβ40 brain ± SD ([2]; APOE4-TR mice, 3 μmol/kg acute p.o., 4 h): 0.114 ± 0.024 pmol/g
- Average Aβ40 brain ± SD ([2]; APOE4-TR mice, 3 μmol/kg acute p.o., 24 h): 0.160 ± 0.033 pmol/g
- % reduction vs vehicle (brain Aβ40) ([2]; APOE4-TR mice, 3 μmol/kg acute, 4 h): 43%
- % reduction vs vehicle (brain Aβ40) ([2]; APOE4-TR mice, 3 μmol/kg acute, 24 h): 20%
- Mini AUEC (brain Aβ40) ([2]; APOE4-TR mice, 10 μmol/kg acute): 47%
- Average Aβ40 brain ± SD ([2]; APOE4-TR mice, 10 μmol/kg acute p.o., 4 h): 0.074 ± 0.014 pmol/g
- Average Aβ40 brain ± SD ([2]; APOE4-TR mice, 10 μmol/kg acute p.o., 24 h): 0.139 ± 0.041 pmol/g
- % reduction vs vehicle (brain Aβ40) ([2]; APOE4-TR mice, 10 μmol/kg acute, 4 h): 63%
- % reduction vs vehicle (brain Aβ40) ([2]; APOE4-TR mice, 10 μmol/kg acute, 24 h): 31%
- Mini AUEC (brain Aβ40) [2, 4]: 72%
- maximal effect on Aβ reduction in the brain [2, 4]: > 70%
- Average Aβ40 brain ± SD ([2]; APOE4-TR mice, 30 μmol/kg acute p.o., 4 h): 0.046 ± 0.006 pmol/g
- Average Aβ40 brain ± SD ([2]; APOE4-TR mice, 30 μmol/kg acute p.o., 24 h): 0.068 ± 0.021 pmol/g
- % reduction vs vehicle (brain Aβ40) ([2]; APOE4-TR mice, 30 μmol/kg acute, 4 h): 77%
- % reduction vs vehicle (brain Aβ40) ([2]; APOE4-TR mice, 30 μmol/kg acute, 24 h): 66%
- Aβ40 reduction vs vehicle, range over the doses ([2]; 4h): 43-77%
- Aβ40 reduction vs vehicle, range over the doses ([2]; 24h): 20-66%
- CSF Aβ40 Change vs vehicle ([3]; 0.03 g/kg food): −8.6%
- CSF Aβ40 Mean ± SEM ([3]; 0.03 g/kg food): 31.2 ± 2.11 ng/mL
- CSF Aβ40 Change vs vehicle ([3]; 0.3 g/kg food): −54.3%
- CSF Aβ40 Mean ± SEM ([3]; 0.3 g/kg food): 15.6 ± 1.8 ng/mL
